# Numbers after ± are expanded uncertainties.
# Conditions: Liquid, Frequency=8 MHz, Pulse-echo method
structure (smiles),measurement,setting,value
CCC(C)O (configuration not stated) [butan-2-ol],speed of sound,"253.15 K, 100 kPa",1374.6 ± 0.7 m/s
same,speed of sound,"253.15 K, 5155 kPa",1400.3 ± 0.71 m/s
same,speed of sound,"253.15 K, 10194 kPa",1424.8 ± 0.72 m/s
same,speed of sound,"253.15 K, 15178 kPa",1448.1 ± 0.72 m/s
same,speed of sound,"253.15 K, 20139 kPa",1470.5 ± 0.73 m/s
same,speed of sound,"253.15 K, 25051 kPa",1491.9 ± 0.74 m/s
same,speed of sound,"253.15 K, 30449 kPa",1514.4 ± 0.75 m/s
same,speed of sound,"273.15 K, 100 kPa",1301.2 ± 0.67 m/s
same,speed of sound,"273.15 K, 5150 kPa",1329.2 ± 0.68 m/s
same,speed of sound,"273.15 K, 10187 kPa",1355.8 ± 0.69 m/s
same,speed of sound,"273.15 K, 15226 kPa",1381.1 ± 0.7 m/s
same,speed of sound,"273.15 K, 20096 kPa",1404.6 ± 0.71 m/s
same,speed of sound,"273.15 K, 25052 kPa",1427.7 ± 0.72 m/s
same,speed of sound,"273.15 K, 30040 kPa",1450 ± 0.72 m/s
same,speed of sound,"293.15 K, 102 kPa",1229.1 ± 0.64 m/s
same,speed of sound,"293.15 K, 5048 kPa",1258.9 ± 0.65 m/s
same,speed of sound,"293.15 K, 10078 kPa",1287.7 ± 0.66 m/s
same,speed of sound,"293.15 K, 15045 kPa",1314.6 ± 0.67 m/s
same,speed of sound,"293.15 K, 20093 kPa",1340.9 ± 0.68 m/s
same,speed of sound,"293.15 K, 25164 kPa",1366 ± 0.69 m/s
same,speed of sound,"293.15 K, 29995 kPa",1389 ± 0.7 m/s
same,speed of sound,"313.15 K, 100 kPa",1156.3 ± 0.61 m/s
same,speed of sound,"313.15 K, 5081 kPa",1189.2 ± 0.63 m/s
same,speed of sound,"313.15 K, 10051 kPa",1220 ± 0.64 m/s
same,speed of sound,"313.15 K, 15034 kPa",1249.2 ± 0.65 m/s
same,speed of sound,"313.15 K, 20050 kPa",1277.2 ± 0.66 m/s
same,speed of sound,"313.15 K, 25148 kPa",1304.3 ± 0.67 m/s
same,speed of sound,"313.15 K, 30041 kPa",1329.3 ± 0.68 m/s
same,speed of sound,"333.15 K, 101 kPa",1081.4 ± 0.59 m/s
same,speed of sound,"333.15 K, 5111 kPa",1117.8 ± 0.6 m/s
same,speed of sound,"333.15 K, 10069 kPa",1151.4 ± 0.61 m/s
same,speed of sound,"333.15 K, 15039 kPa",1183 ± 0.62 m/s
same,speed of sound,"333.15 K, 20109 kPa",1213.5 ± 0.64 m/s
same,speed of sound,"333.15 K, 25122 kPa",1242.1 ± 0.65 m/s
same,speed of sound,"333.15 K, 30086 kPa",1269.2 ± 0.66 m/s
same,speed of sound,"353.15 K, 119 kPa",1003.7 ± 0.56 m/s
same,speed of sound,"353.15 K, 5050 kPa",1043.6 ± 0.57 m/s
same,speed of sound,"353.15 K, 10149 kPa",1081.5 ± 0.59 m/s
same,speed of sound,"353.15 K, 15213 kPa",1116.5 ± 0.6 m/s
same,speed of sound,"353.15 K, 20040 kPa",1147.9 ± 0.61 m/s
same,speed of sound,"353.15 K, 25218 kPa",1179.7 ± 0.62 m/s
same,speed of sound,"353.15 K, 30032 kPa",1207.7 ± 0.63 m/s
"OCCCO [propan-1,3-diol]",speed of sound,"293.15 K, 100 kPa",1635.2 ± 1.4 m/s
same,speed of sound,"293.15 K, 5030 kPa",1650 ± 1.4 m/s
same,speed of sound,"293.15 K, 10062 kPa",1664.6 ± 1.4 m/s
same,speed of sound,"293.15 K, 15066 kPa",1678.9 ± 1.4 m/s
same,speed of sound,"293.15 K, 20096 kPa",1692.9 ± 1.4 m/s
same,speed of sound,"293.15 K, 24997 kPa",1706.3 ± 1.4 m/s
same,speed of sound,"293.15 K, 30029 kPa",1719.9 ± 1.4 m/s
same,speed of sound,"313.15 K, 99 kPa",1589.5 ± 1.4 m/s
same,speed of sound,"313.15 K, 5048 kPa",1605.1 ± 1.4 m/s
same,speed of sound,"313.15 K, 10031 kPa",1620.3 ± 1.4 m/s
same,speed of sound,"313.15 K, 15138 kPa",1635.4 ± 1.4 m/s
same,speed of sound,"313.15 K, 20064 kPa",1649.8 ± 1.4 m/s
same,speed of sound,"313.15 K, 25191 kPa",1664.4 ± 1.4 m/s
same,speed of sound,"313.15 K, 30167 kPa",1678.3 ± 1.4 m/s
same,speed of sound,"333.15 K, 100 kPa",1544.1 ± 1.3 m/s
same,speed of sound,"333.15 K, 5058 kPa",1560.3 ± 1.3 m/s
same,speed of sound,"333.15 K, 10054 kPa",1576.2 ± 1.3 m/s
same,speed of sound,"333.15 K, 15024 kPa",1591.7 ± 1.4 m/s
same,speed of sound,"333.15 K, 20153 kPa",1607.2 ± 1.4 m/s
same,speed of sound,"333.15 K, 25135 kPa",1622 ± 1.4 m/s
same,speed of sound,"333.15 K, 30136 kPa",1636.6 ± 1.4 m/s
same,speed of sound,"353.15 K, 101 kPa",1497.6 ± 1.3 m/s
same,speed of sound,"353.15 K, 5038 kPa",1514.6 ± 1.3 m/s
same,speed of sound,"353.15 K, 10023 kPa",1531.3 ± 1.3 m/s
same,speed of sound,"353.15 K, 15089 kPa",1547.8 ± 1.3 m/s
same,speed of sound,"353.15 K, 20158 kPa",1563.9 ± 1.3 m/s
same,speed of sound,"353.15 K, 25109 kPa",1579.3 ± 1.3 m/s
same,speed of sound,"353.15 K, 30076 kPa",1594.4 ± 1.4 m/s
CC(C)O [propan-2-ol],speed of sound,"253.15 K, 99 kPa",1301 ± 0.67 m/s
same,speed of sound,"253.15 K, 5138 kPa",1328.8 ± 0.68 m/s
same,speed of sound,"253.15 K, 10106 kPa",1354.9 ± 0.69 m/s
same,speed of sound,"253.15 K, 15136 kPa",1380 ± 0.7 m/s
same,speed of sound,"253.15 K, 20143 kPa",1404 ± 0.71 m/s
same,speed of sound,"253.15 K, 25229 kPa",1427.5 ± 0.72 m/s
same,speed of sound,"253.15 K, 30036 kPa",1448.9 ± 0.72 m/s
same,speed of sound,"273.15 K, 100 kPa",1227.9 ± 0.64 m/s
same,speed of sound,"273.15 K, 5275 kPa",1258.8 ± 0.65 m/s
same,speed of sound,"273.15 K, 10173 kPa",1286.4 ± 0.66 m/s
same,speed of sound,"273.15 K, 15164 kPa",1313.3 ± 0.67 m/s
same,speed of sound,"273.15 K, 20289 kPa",1339.6 ± 0.68 m/s
same,speed of sound,"273.15 K, 25102 kPa",1363.3 ± 0.69 m/s
same,speed of sound,"273.15 K, 30264 kPa",1387.7 ± 0.7 m/s
same,speed of sound,"293.15 K, 100 kPa",1157.4 ± 0.61 m/s
same,speed of sound,"293.15 K, 5085 kPa",1189.7 ± 0.63 m/s
same,speed of sound,"293.15 K, 10183 kPa",1220.8 ± 0.64 m/s
same,speed of sound,"293.15 K, 15273 kPa",1250.2 ± 0.65 m/s
same,speed of sound,"293.15 K, 20239 kPa",1277.4 ± 0.66 m/s
same,speed of sound,"293.15 K, 25220 kPa",1303.6 ± 0.67 m/s
same,speed of sound,"293.15 K, 30278 kPa",1328.9 ± 0.68 m/s
same,speed of sound,"313.15 K, 100 kPa",1087.2 ± 0.59 m/s
same,speed of sound,"313.15 K, 5177 kPa",1123.1 ± 0.6 m/s
same,speed of sound,"313.15 K, 10104 kPa",1155.7 ± 0.61 m/s
same,speed of sound,"313.15 K, 15187 kPa",1187.5 ± 0.63 m/s
same,speed of sound,"313.15 K, 20126 kPa",1216.6 ± 0.64 m/s
same,speed of sound,"313.15 K, 25138 kPa",1244.7 ± 0.65 m/s
same,speed of sound,"313.15 K, 30110 kPa",1271.1 ± 0.66 m/s
same,speed of sound,"333.15 K, 100 kPa",1016 ± 0.56 m/s
same,speed of sound,"333.15 K, 5048 kPa",1054.5 ± 0.58 m/s
same,speed of sound,"333.15 K, 10038 kPa",1090.6 ± 0.59 m/s
same,speed of sound,"333.15 K, 15065 kPa",1124.6 ± 0.6 m/s
same,speed of sound,"333.15 K, 20102 kPa",1156.5 ± 0.61 m/s
same,speed of sound,"333.15 K, 25093 kPa",1186.4 ± 0.62 m/s
same,speed of sound,"333.15 K, 30014 kPa",1214.4 ± 0.64 m/s
same,speed of sound,"353.15 K, 100 kPa",940.5 ± 0.53 m/s
same,speed of sound,"353.15 K, 5080 kPa",983.88 ± 0.55 m/s
same,speed of sound,"353.15 K, 10091 kPa",1023.9 ± 0.56 m/s
same,speed of sound,"353.15 K, 15114 kPa",1060.8 ± 0.58 m/s
same,speed of sound,"353.15 K, 20132 kPa",1095.3 ± 0.59 m/s
same,speed of sound,"353.15 K, 25164 kPa",1127.6 ± 0.6 m/s
same,speed of sound,"353.15 K, 30380 kPa",1159.2 ± 0.61 m/s
